Test results taken from PubChem BioAssay (NCI).
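Tested at 5 concentrations; 48 h exposure; 96-well plates; endpoints linearly interpolated, else capped at highest concentration. GI50 = concentration required for 50% inhibition of growth. TGI marks complete inhibition of growth.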

Experiments:
Test in all cases: NCI-60 cell line screen, 48 h
[1] = tested on: ACHN renal
[2] = tested on: HCC-2998 colon
[3] = tested on: HCT-116 colon
[4] = tested on: HS 578T breast
[5] = tested on: PC-3 prostate
[6] = tested on: SF-268 CNS
[7] = tested on: SF-539 CNS
[8] = tested on: SN12C renal
[9] = tested on: SW-620 colon
[10] = tested on: UACC-257 melanoma
[11] = tested on: UO-31 renal

| SMILES | TGI [1] [µM] | TGI [2] [µM] | TGI [3] [µM] | TGI [4] [µM] | TGI [5] [µM] | TGI [6] [µM] | TGI [7] [µM] | TGI [8] [µM] | TGI [9] [µM] | TGI [10] [µM] | TGI [11] [µM] | GI50 [3] [µM] | GI50 [6] [µM] | GI50 [7] [µM] |
| --- | --- | --- | --- | --- | --- | --- | --- | --- | --- | --- | --- | --- | --- | --- |
| CN(C)c1cccc2c1C(=O)C=CC21c2ccc(N(C)C)c3c(N(C)C)ccc(c23)C(c2ccccc2)C1c1ccccc1 (stereo not given) | 26.6 | 45.6 | 52.6 | 45.3 | 30.2 | 53.9 | 26 | 32.7 | 54 | 27.2 | 12.2 |  |  |  |
| CN(C)CCCNC(=O)c1c(O)c2ccccc2n(C)c1=O | > 100 | > 100 | > 100 | > 100 | > 100 | > 100 | > 100 | > 100 | > 100 | > 100 | > 100 |  |  |  |
| C[C@H]1[C@H](C)CC[C@]2(C(=O)OC3OC(CO)C(O)C(O)C3O)CC[C@]3(C)C(=CC[C@@H]4[C@@]5(C)C[C@H]6OC(=O)c7cc(O)c(O)c(O)c7-c7c(cc(O)c(O)c7O)C(=O)O[C@@H]6C(CO)(CO)[C@@H]5CC[C@]43C)[C@H]12 (stereo not given in full) | > 100 | > 100 | > 100 | > 100 | > 100 | > 100 | > 100 | > 100 | > 100 | > 100 | > 100 |  |  |  |
| Nc1ccc(-c2nn3c(COc4ccc(Cl)cc4)nnc3s2)cc1 | > 100 | > 100 | > 100 | > 100 | > 100 | > 100 | > 100 | > 100 | > 100 | > 100 | > 100 | 34.8 | 46.8 | 34.5 |
| COC(=O)[C@H](Cc1ccccc1)NC(=O)N(CCC#N)CCN(C(=O)N[C@@H](Cc1ccccc1)C(=O)OC)c1ccccc1 | 33.9 | > 100 | 82.5 | > 100 | > 100 | 45.6 | 41.1 | 89 | > 100 | 37.5 | 31.9 |  |  |  |
| COC1C(O)C(O[C@H]2CC[C@@]3(C)C(CC[C@@H]4[C@@H]3CC[C@]3(C)[C@@H](C(C)OC5OC(CO)C(O)C(O)C5O)CC[C@]43O)C2)OC(C)C1OC1OC(CO)C(O)C(O)C1O (stereo not given in full) | > 100 | > 100 | > 100 | > 100 | > 100 | > 100 | > 100 | > 100 | > 100 | > 100 | > 100 |  |  |  |
| CC1(C)N=C2C(=O)c3c([nH]c4ccccc34)[C@]3(C)CCC1CC23 (stereo not given in full) | > 6.25 | > 6.25 | > 6.25 | > 6.25 | > 6.25 | > 6.25 | > 6.25 | > 6.25 | > 6.25 | > 6.25 | > 6.25 |  |  |  |
| CCNc1ncnc2sc(SCc3ccccc3)nc12 | > 100 | > 100 | > 100 | > 100 | > 100 | > 100 | > 100 | > 100 | > 100 | > 100 | > 100 |  |  |  |
| CC(C)/C(Cl)=N/OC(=O)Nc1ccc(OC(F)(F)F)cc1 | 25.1 | 30.5 | 18 | 43 | 30.4 | 39.1 | 31.3 | 31.7 | 3.27 | 26.6 | 23.8 |  |  |  |
| CC1(C)CC(C#Cc2ccccc2)CC(C)(C)N1O | > 100 | 32.2 | 43.5 | 44.9 | 29.4 | 83.1 | 51.8 | 28.8 | 50.5 | 33 | 32.4 |  |  |  |
| CCN(CC)CCO/N=C1\CC[C@H]2[C@@H]3CCc4cc(OC)ccc4[C@H]3CC[C@]12C | 13.2 | 3.33 | 2.92 | 7.36 | 9.29 | 7.05 | 3.92 | 8.12 | 3.47 | 2.54 | 7.77 |  |  |  |
| O=C(O)CN(CC(=O)O)C(C(=O)O)c1ccccc1 (stereo not given) | > 100 | > 100 | > 100 | > 100 | > 100 | > 100 | > 100 | > 100 | > 100 | > 100 | > 100 |  |  |  |
